Data as given in ChEMBL document CHEMBL1152755, “Synthesis and cytotoxic properties of 4,11-bis[(aminoethyl)amino]anthra[2,3-b]thiophene-5,10-diones, novel analogues of antitumor anthracene-9,10-diones” (2009).
Activity calls are given as the source filed them. The calls are words filed in the database; no cut-off is given here.

Key:
[1] = test system: K562; assay: Resistance index, ratio IC50 for human K562 cells to IC50 for P-gp positive human K562 cells; assay type: functional
[2] = test system: HCT-116; assay: Resistance index, ratio IC50 for HCT116 cells to IC50 for p53 deleted human HCT116 cells; assay type: functional
[3] = target: Telomerase reverse transcriptase (Homo sapiens) (UniProt O14746); assay: Inhibition of telomerase at 1 uM by TRAP assay
[4] = target: T1, DNA topoisomerase 1 (Homo sapiens) (UniProt P11387); assay: Inhibition of topoisomerase 1-mediate pHot DNA relaxation measured by electrophoretic mobility
T1 sequence (whole entry): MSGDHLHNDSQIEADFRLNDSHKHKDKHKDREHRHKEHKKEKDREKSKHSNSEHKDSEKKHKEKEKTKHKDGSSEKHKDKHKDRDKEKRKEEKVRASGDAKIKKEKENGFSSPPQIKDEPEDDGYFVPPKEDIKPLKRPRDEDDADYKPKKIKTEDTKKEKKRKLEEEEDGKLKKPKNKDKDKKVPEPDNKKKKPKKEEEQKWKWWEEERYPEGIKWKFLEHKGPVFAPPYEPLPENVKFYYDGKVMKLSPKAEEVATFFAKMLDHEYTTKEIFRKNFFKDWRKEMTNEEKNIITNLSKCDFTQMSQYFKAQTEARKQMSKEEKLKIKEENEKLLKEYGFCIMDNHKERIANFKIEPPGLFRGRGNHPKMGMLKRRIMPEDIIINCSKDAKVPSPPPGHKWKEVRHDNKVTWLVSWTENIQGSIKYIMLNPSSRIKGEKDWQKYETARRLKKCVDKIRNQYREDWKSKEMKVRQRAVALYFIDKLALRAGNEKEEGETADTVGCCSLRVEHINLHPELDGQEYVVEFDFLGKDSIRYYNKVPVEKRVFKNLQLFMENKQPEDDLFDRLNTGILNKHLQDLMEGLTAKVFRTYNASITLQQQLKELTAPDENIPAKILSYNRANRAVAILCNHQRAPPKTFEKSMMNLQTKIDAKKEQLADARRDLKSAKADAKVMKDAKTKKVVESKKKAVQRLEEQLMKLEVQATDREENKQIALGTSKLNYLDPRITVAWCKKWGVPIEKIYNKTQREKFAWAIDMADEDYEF

Chain of Telomerase reverse transcriptase (Homo sapiens) (O14746 whole entry): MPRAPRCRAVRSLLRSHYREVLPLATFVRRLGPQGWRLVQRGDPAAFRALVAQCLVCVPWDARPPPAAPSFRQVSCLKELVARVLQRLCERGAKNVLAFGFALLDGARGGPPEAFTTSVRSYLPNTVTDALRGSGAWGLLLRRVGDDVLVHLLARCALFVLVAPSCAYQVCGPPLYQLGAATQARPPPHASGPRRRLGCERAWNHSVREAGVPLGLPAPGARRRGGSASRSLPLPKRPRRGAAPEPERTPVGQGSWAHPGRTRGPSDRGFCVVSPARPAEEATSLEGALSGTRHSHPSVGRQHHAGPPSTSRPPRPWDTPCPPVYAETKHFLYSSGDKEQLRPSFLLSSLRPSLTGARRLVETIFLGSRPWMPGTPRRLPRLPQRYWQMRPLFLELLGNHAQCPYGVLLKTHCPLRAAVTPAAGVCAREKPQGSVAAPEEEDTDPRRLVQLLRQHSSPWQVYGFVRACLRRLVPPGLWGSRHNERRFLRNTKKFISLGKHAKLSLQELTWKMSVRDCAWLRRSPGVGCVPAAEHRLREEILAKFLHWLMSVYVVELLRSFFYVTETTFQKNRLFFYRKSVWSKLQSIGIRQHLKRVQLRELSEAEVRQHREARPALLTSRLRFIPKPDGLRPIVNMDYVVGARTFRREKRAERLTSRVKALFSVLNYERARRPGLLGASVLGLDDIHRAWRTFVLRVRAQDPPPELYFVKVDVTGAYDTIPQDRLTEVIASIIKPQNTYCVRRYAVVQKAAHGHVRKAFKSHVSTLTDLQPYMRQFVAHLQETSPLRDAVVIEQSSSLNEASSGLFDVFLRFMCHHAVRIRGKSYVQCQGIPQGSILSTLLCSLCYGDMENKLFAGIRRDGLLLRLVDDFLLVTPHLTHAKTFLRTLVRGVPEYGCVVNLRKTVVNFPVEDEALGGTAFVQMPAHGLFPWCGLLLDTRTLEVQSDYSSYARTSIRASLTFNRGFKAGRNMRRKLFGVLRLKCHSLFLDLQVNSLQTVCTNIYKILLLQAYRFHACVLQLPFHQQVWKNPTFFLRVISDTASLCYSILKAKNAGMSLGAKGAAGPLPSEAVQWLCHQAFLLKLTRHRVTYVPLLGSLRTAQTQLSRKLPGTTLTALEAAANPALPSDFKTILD

SMILES | Ratio IC50 [1] | Ratio IC50 [2] | Activity [3] | Activity [4]
COc1cccc2c1C(=O)c1c(O)c3c(c(O)c1C2=O)C[C@@](O)(C(=O)CO)C[C@@H]3O[C@H]1C[C@H](N)[C@H](O)[C@H](C)O1 [DOXORUBICIN] | 51 |  |  | 
CN(CCNc1c2c(c(NCCN(C)C(=N)N)c3sccc13)C(=O)c1ccccc1C2=O)C(=N)N |  | >24 | Active | 
CN(C)CCNc1c2c(c(NCCN(C)C)c3sc(C(=O)NCCO)cc13)C(=O)c1ccccc1C2=O | >6 |  |  | 
CN(C)CCNc1c2c(c(NCCN(C)C)c3sc(C(=O)NN)cc13)C(=O)c1ccccc1C2=O | >90 | >25 |  | 
Cc1csc2c(NCCN)c3c(c(NCCN)c12)C(=O)c1ccccc1C3=O | 5 | >83 |  | 
CNCCNc1c2c(c(NCCNC)c3sccc13)C(=O)c1ccccc1C2=O | 1.4 | 0.6 | Active | Active
N=C(N)NCCNc1c2c(c(NCCNC(=N)N)c3sccc13)C(=O)c1ccccc1C2=O | 3.4 | >25 | Active | 
CNC(=O)c1cc2c(NCCN(C)C)c3c(c(NCCN(C)C)c2s1)C(=O)c1ccccc1C3=O | 1.1 | 4.2 |  | 
CC(=O)OCCNCCNc1c2c(c(NCCNCCOC(C)=O)c3sccc13)C(=O)c1ccccc1C2=O | >18 |  |  | 
CNCCNc1c2c(c(NCCNC)c3c(C)csc13)C(=O)c1ccccc1C2=O | 2 | 2.7 |  | 
Cc1csc2c(NCCN(C)C)c3c(c(NCCN(C)C)c12)C(=O)c1ccccc1C3=O | 1.8 | 8.4 |  | 
CNCCNc1c2c(c(NCCNC)c3[nH]ccc13)C(=O)c1ccccc1C2=O | 3.1 | 1 |  | 
CN(C)CCNc1c2c(c(NCCN(C)C)c3sccc13)C(=O)c1ccccc1C2=O | 2.3 | 0.6 |  | 
CNCCNc1c2c(c(NCCNC)c3sc(C(=O)NC)cc13)C(=O)c1ccccc1C2=O | >11 |  |  | 
O=C1c2ccccc2C(=O)c2c1c(NCCNCCO)c1ccsc1c2NCCNCCO | >12 |  |  | 
